The values that follow come from ChEMBL document CHEMBL3351722, “Optimized inhibitors of soluble epoxide hydrolase improve in vitro target residence time and in vivo efficacy” (J Med Chem, 2014).

Series [1] is described as follows: Lipophilicity, log P of the compound by shake-flask method. The conditions noted are these: octanol/water. Type of series: physicochemical.
The nature of series [2]: (§1) AUC in Swiss Webster mouse at 0.3 mg/kg, po administered as cassette dosing. Also on record: dose 0.3 mg/kg, route oral. The series is classed as ADME, organism-based, Plasma. As to conditions: Swiss Webster, plasma.
Series [3] in a line: (§2) Cmax in Swiss Webster mouse at 0.3 mg/kg, po administered as cassette dosing. The series is classed as ADME, organism-based. Also on record: dose 0.3 mg/kg, route oral. As to conditions: Swiss Webster, in vivo.
Series [4] in a line: (§3) Half life in Swiss Webster mouse at 0.3 mg/kg, po administered as cassette dosing. Also on record: dose 0.3 mg/kg, route oral. As to conditions: Swiss Webster, in vivo. Type of series: ADME, organism-based.
The nature of series [5]: in vivo. The conditions noted are these: Swiss Webster, mouse, po, 0.3 mg/kg.
The nature of series [6]: AUC in Sprague-Dawley rat at 0.3 mg/kg, po administered as cassette dosing. Type of series: ADME, organism-based. Also on record: dose 0.3 mg/kg, route oral. As to conditions: plasma.
The nature of series [7]: Cmax in Sprague-Dawley rat at 0.3 mg/kg, po administered as cassette dosing. Type of series: ADME, organism-based. Also on record: dose 0.3 mg/kg, route oral. The conditions noted are these: in vivo.
A short description of series [8]: Half life in Sprague-Dawley rat at 0.3 mg/kg, po administered as cassette dosing. Also on record: dose 0.3 mg/kg, route oral. Type of series: ADME, organism-based. The conditions noted are these: in vivo.
Series [9] is described as follows: in vivo. The conditions noted are these: Sprague-Dawley, rat, po, 0.3 mg/kg.
Series [10] has as its system Mus musculus. The series is described as §1. The series is classed as ADME, organism-based, Plasma. Also on record: dose 0.3 mg/kg, route oral. The conditions noted are these: in vivo.
Series [11] deals with Mus musculus. The series is described as §3. As to conditions: in vivo. The series is classed as ADME, organism-based. Also on record: dose 0.3 mg/kg, route oral.
Series [12] deals with Mus musculus. The series is described as §2. Type of series: ADME, organism-based. Also on record: dose 0.3 mg/kg, route oral. As to conditions: in vivo.

In series [1], `CCC(C)C(=O)N1CCC(NC(=O)Nc2ccc(C(C)(C)C)cc2)CC1` (stereo not drawn) displayed a log partition coefficient (logP) of 5.12.
Consider `CC(C)CC(=O)N1CCC(NC(=O)Nc2ccc(C(F)(F)F)cc2)CC1`, for which, in [1], the lipophilicity (logP) was 3.86.
`CCS(=O)(=O)N1CCC(NC(=O)Nc2ccc(C(F)(F)F)cc2)CC1`: in series [1], the logP amounted to 3.08.
On to `CCC(C)C(=O)N1CCC(NC(=O)NC2CCCCCC2)CC1` (stereo not drawn), for which the AUC in series [2] is 0.075 µM·h. In series [3], this compound registered a Cmax of 3 nM. The half-life in series [4] is 8.4 h. Besides, the Tmax in “in vivo [5]” stood at 0.5 h.
The compound `CCCCS(=O)(=O)N1CCC(NC(=O)Nc2ccc(C(F)(F)F)cc2)CC1` registered an AUC in [2] of 0.245 µM·h. The concentration in series [3] peaked (Cmax) at 30 nM. This compound also showed a half-life in series [4] of 7.4 h. Further, the logP in series [1] turned out to be 3.95. The Tmax in the series “in vivo [5]” is 1 h.
Take `CCC(C)C(=O)N1CCC(NC(=O)Nc2ccc(OC(F)(F)F)cc2)CC1` (stereo not drawn): in [2], the AUC is 3.3 µM·h. Further, the highest level in series [3] (Cmax) was 235 nM. This compound had a half-life in series [4] of 6 h. Further, the logP in series [1] was determined as 3.98. Also, the Tmax in the series “in vivo [5]” came to 2 h.
As to `CC(C)C(=O)N1CCC(NC(=O)Nc2ccc(C(F)(F)F)cc2)CC1`, the AUC in [2] amounted to 19.7 µM·h; in [6], 7.3 µM·h. The Cmax was found to be 1160 nM in series [3] and 510 nM in series [7]. In addition, the half-life is 6 h in series [4] and 5.4 h in series [8]. The Tmax in “in vivo [5]” and in “in vivo [9]” was 4 h in each case.
On to `CC[C@H](C)C(=O)N1CCC(NC(=O)Nc2ccc(OC(F)(F)F)cc2)CC1`, for which the exposure (AUC) was determined as 2.53 µM·h in [2] and 2.59 µM·h in series [6]. Also, the Cmax in series [3] turned out to be 195 nM; in [7], 297 nM. Moreover, the half-life in series [4] is 7.7 h; in series [8], 4.2 h. The logP in series [1] came out at 3.97. Moreover, the Tmax in the series “in vivo [5]” and in the series “in vivo [9]” was 4 h in each case.
In series [1], `CCCS(=O)(=O)N1CCC(NC(=O)Nc2ccc(C(F)(F)F)cc2)CC1` came in with a logP of 3.39.
In [2], `O=C(Nc1ccc(C(F)(F)F)cc1)NC1CCN(S(=O)(=O)CC(F)(F)F)CC1` gave an AUC of 4.27 µM·h. This compound came in with a Cmax in series [3] of 100 nM. For the same compound, the half-life in series [4] is 25 h. In addition, in [1], the logP turned out to be 3.42. For the same compound, in the series “in vivo [5]”, the Tmax was 8 h.
Regarding `CC(=O)N1CCC(NC(=O)NC23CC4CC(CC(C4)C2)C3)CC1` [AR9281], in [2], the AUC is 0.183 µM·h. The peak level in [3] (Cmax) was 30 nM.
For `O=C(Nc1ccc(C(F)(F)F)cc1)NC1CCN(S(=O)(=O)C2CC2)CC1`, the logP in series [1] worked out at 3.39.
Take `CS(=O)(=O)N1CCC(NC(=O)Nc2ccc(C(F)(F)F)cc2)CC1`: the AUC in [2] is 4.67 µM·h. Besides, in [3], the highest concentration (Cmax) stood at 130 nM. Further, in series [4], the half-life was 22 h. The compound further registered a logP in series [1] of 2.94. In the series “in vivo [5]”, the Tmax was found to be 8 h.
Compound `O=C(Nc1ccc(C(F)(F)F)cc1)NC1CCN(C(=O)C2CC2)CC1` displayed an AUC in [2] of 24.6 µM·h. In series [3], this compound returned a Cmax of 960 nM. Further, the half-life in series [4] was 17 h. In series [1], the logP is 3.18. Also, the Tmax in “in vivo [5]” turned out to be 6 h.
Compound `CCC(C)C(=O)N1CCC(NC(=O)N[C@H]2CC[C@H](CC)CC2)CC1` (stereo partly drawn) returned an AUC in the series with Mus musculus [10] of 0.037 µM·h. Moreover, the Cmax in [3] came out at 5 nM. In the series with Mus musculus [11], the t1/2 is 12 h.
Compound `CCC(C)C(=O)N1CCC(NC(=O)Nc2ccc(C(F)(F)F)cc2)CC1` (stereo not drawn) had an AUC in series [2] of 3.29 µM·h. The Cmax in series [3] stood at 320 nM. For the same compound, the half-life in [4] was 6 h. In addition, the logP in series [1] was 3.83. The Tmax in the series “in vivo [5]” is 0.5 h.
The compound `CS(=O)(=O)N1CCC(NC(=O)Nc2ccc(OC(F)(F)F)cc2)CC1` displayed an AUC in series [2] of 5.3 µM·h. The compound also yielded a Cmax in the series on Mus musculus [12] of 370 nM. In addition, in series [4], the half-life was 15 h.
On to `CC[C@H](C)C(=O)N1CCC(NC(=O)Nc2ccc(C(F)(F)F)cc2)CC1`, for which the results for the AUC in series [2] and in [6] were 4.94 µM·h and 5.72 µM·h, respectively. The highest concentration (Cmax) stood at 435 nM in series [3] and 790 nM in series [7]. The half-life in [4] is 5 h; in series [8], 4.9 h. This compound also returned a log partition coefficient (logP) in [1] of 3.84. For the same compound, the Tmax in “in vivo [5]” and in the series “in vivo [9]” was 1 h each time.
`CCC(C)C(=O)N1CCC(NC(=O)Nc2ccc(C(C)C)cc2)CC1` (stereo not drawn) returned an AUC in [2] of 0.2 µM·h. Further, in [3], the Cmax turned out to be 90 nM. The same compound gave a logP in series [1] of 4.21. The Tmax in “in vivo [5]” was found to be 0.5 h.
`O=C(Nc1ccc(C(F)(F)F)cc1)NC1CCN(C(=O)CCC(F)(F)F)CC1`: the logP in series [1] amounted to 3.66.
As to `CC(C)C(=O)N1CCC(NC(=O)Nc2ccc(OC(F)(F)F)cc2)CC1`, the values for the AUC in series [2] and in [6] were 19.5 µM·h and 12 µM·h, respectively. The Cmax is 900 nM in series [3] and 890 nM in series [7]. The half-life in series [4] was 9 h; in [8], 3.5 h. Also, the Tmax in “in vivo [5]” was 5 h; in the series “in vivo [9]” it was 1 h.
For the compound `CCC(C)C(=O)N1CCC(NC(=O)Nc2ccc(C(F)(C(F)(F)F)C(F)(F)F)cc2)CC1` (stereo not drawn), the AUC in series [2] was 1.6 µM·h. The compound also had a Cmax in [3] of 135 nM. The same compound had a half-life in series [4] of 4.5 h. Moreover, the logP in series [1] is 4.96. In addition, the Tmax in “in vivo [5]” was 2.5 h.
`CC(C)S(=O)(=O)N1CCC(NC(=O)Nc2ccc(C(F)(F)F)cc2)CC1` showed a logP in [1] of 3.39.
In turn, `O=C(Nc1ccc(C(F)(F)F)cc1)NC1CCN(C(=O)CC(F)(F)F)CC1` yielded an AUC in [2] of 8.85 µM·h. The highest level in series [3] (Cmax) was 330 nM. This compound also had a half-life in [4] of 15.4 h. Besides, in series [1], the logP came to 3.99. In addition, in “in vivo [5]”, the Tmax is 8 h.
For `CC(=O)N1CCC(NC(=O)Nc2ccc(C(F)(F)F)cc2)CC1`, the logP in series [1] was found to be 2.74.
Compound `CCCCS(=O)(=O)N1CCC(NC(=O)Nc2ccc(OC(F)(F)F)cc2)CC1` came in with an exposure (AUC) in series [2] of 0.22 µM·h. This compound yielded a Cmax in series [3] of 65 nM. In series [4], the half-life was 2 h. Besides, the logP in [1] was 4.13. For the same compound, the Tmax in the series “in vivo [5]” is 1.2 h.
For `O=C(Nc1ccc(C(F)(C(F)(F)F)C(F)(F)F)cc1)NC1CCN(C(=O)CC(F)(F)F)CC1`, in that order: 9.6 µM·h, 365 nM, 18.9 h, 4.89 and 8 h.

For orientation: logP means the decadic logarithm of the partition coefficient of the neutral form, usually between octanol and water. Read a high logP as higher lipophilicity. As usually defined, the AUC is concentration integrated over time. The term Cmax denotes the peak of the concentration-time curve. As usually defined, the half-life is how long it takes for the measured level to halve. A low value points to fast loss. The term Tmax denotes the time from dosing to the highest level.
